This is an account of results in PubChem BioAssay (NCI).

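Interpolation was linear, between the two tested concentrations surrounding the appropriate level; five concentrations were tested over 48 hours in 96-well plates. GI50 = concentration required for 50% inhibition of growth. The concentration for full growth arrest is given as TGI.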

Some test systems named below: HOP-62 NSCLC; NCI-H23 lung; SK-OV-3 ovarian; CAKI-1 renal; SR leukemia; SN12C renal; SK-MEL-28 melanoma; SF-295 CNS; OVCAR-5 ovarian; SNB-19 CNS.
Common to all, as to assay: NCI tumour cell line growth inhibition, 48 h

`CCCN(CCC)c1ccc(C=O)c(OC)c1`: the GI50 in the assay with HOP-62 NSCLC is 32 µM; in the assay on NCI-H23 lung, 22.2 µM; in the assay on SK-OV-3 ovarian, 25.8 µM; with CAKI-1 renal, 22.7 µM; in the assay on SR leukemia it was 10.7 µM; with SN12C renal it was 32.7 µM. Moreover, the GI50 in the assay on SK-MEL-28 melanoma was 21.3 µM; in the assay on SF-295 CNS, 15.8 µM; in the assay on OVCAR-5 ovarian it was 19.5 µM; in the assay with SNB-19 CNS, 29.4 µM. The TGI in the assay with HOP-62 NSCLC was above 100 µM; with NCI-H23 lung, above 100 µM; in the assay with SK-OV-3 ovarian, above 100 µM; with CAKI-1 renal it was 80.4 µM; in the assay on SR leukemia it was 34.5 µM; with SN12C renal it was above 100 µM. Further, the TGI in the assay with SK-MEL-28 melanoma is 83.9 µM; in the assay with SF-295 CNS, 64.5 µM; in the assay on OVCAR-5 ovarian, above 100 µM; in the assay on SNB-19 CNS, above 100 µM.

With `Cn1c(-c2c(N)n(Cc3ccc(Cl)cc3)c3nc(C#N)c(C#N)nc23)nc2ccccc21`, the GI50 was 11.7 µM in the assay on HOP-62 NSCLC; 1.18 µM with NCI-H23 lung; 1.89 µM in the assay with SK-OV-3 ovarian; 7.15 µM in the assay with CAKI-1 renal; 8.26 µM in the assay on SR leukemia; 2.57 µM in the assay with SN12C renal. Further, the GI50 in the assay on SK-MEL-28 melanoma was 2.86 µM; in the assay on SF-295 CNS, 6.28 µM; in the assay on OVCAR-5 ovarian it was 6.74 µM; with SNB-19 CNS it was 12.3 µM. The TGI with HOP-62 NSCLC was above 50 µM; in the assay on NCI-H23 lung, 2.48 µM; with SK-OV-3 ovarian, 5.67 µM; with CAKI-1 renal, 18.7 µM; with SR leukemia it was above 50 µM; in the assay on SN12C renal, 10.3 µM. Moreover, the TGI is 13.9 µM in the assay on SK-MEL-28 melanoma, 40.5 µM in the assay on SF-295 CNS, 16 µM in the assay with OVCAR-5 ovarian and 46.5 µM in the assay with SNB-19 CNS.

With `C/C(=C\c1ccccc1)C(O)S(=O)(=O)O` (configuration not stated), the TGI with HOP-62 NSCLC, in the assay with NCI-H23 lung, in the assay on SK-OV-3 ovarian, in the assay with CAKI-1 renal, with SR leukemia and in the assay on SN12C renal was above 100 µM in each case. Besides, the TGI with SK-MEL-28 melanoma, in the assay on SF-295 CNS, with OVCAR-5 ovarian and in the assay with SNB-19 CNS was above 100 µM throughout.

As for `COc1ncnc2c1ncn2C/C(Br)=C(\Br)CCl`, the GI50 in the assay with HOP-62 NSCLC was 3.9 µM; with NCI-H23 lung, 3.16 µM; in the assay with SK-OV-3 ovarian, 14.8 µM; in the assay with CAKI-1 renal, 1.87 µM; in the assay on SR leukemia it was 2.73 µM; with SN12C renal it was 2.44 µM. In addition, the GI50 in the assay with SK-MEL-28 melanoma was 2.62 µM; in the assay on SF-295 CNS, 10.6 µM; with OVCAR-5 ovarian, 3.83 µM; in the assay on SNB-19 CNS it was 12.1 µM. The TGI in the assay on HOP-62 NSCLC amounted to 14.1 µM; in the assay on NCI-H23 lung it was 11.4 µM; with SK-OV-3 ovarian, 28 µM; in the assay with CAKI-1 renal, 3.87 µM; in the assay on SR leukemia, 12.2 µM; in the assay with SN12C renal, 9.52 µM. Besides, the TGI with SK-MEL-28 melanoma worked out at 8.62 µM; with SF-295 CNS, 23.3 µM; with OVCAR-5 ovarian, 15.2 µM; in the assay with SNB-19 CNS, 24.5 µM.

Consider `CCOc1ccccc1N=C(NC(=O)CC)SC`, for which the GI50 in the assay with HOP-62 NSCLC is above 100 µM; with NCI-H23 lung it was above 10 µM; in the assay on CAKI-1 renal, above 100 µM; in the assay with SR leukemia, above 100 µM; in the assay on SN12C renal it was above 10 µM; in the assay on SK-MEL-28 melanoma it was above 100 µM. Further, the GI50 with SF-295 CNS and with SNB-19 CNS was above 100 µM throughout. The TGI in the assay on HOP-62 NSCLC was above 100 µM; with NCI-H23 lung, above 100 µM; in the assay on SK-OV-3 ovarian, above 10 µM; in the assay with CAKI-1 renal, above 100 µM; in the assay with SR leukemia it was above 100 µM; in the assay on SN12C renal, above 100 µM. In addition, the TGI was above 100 µM with SK-MEL-28 melanoma, above 100 µM in the assay with SF-295 CNS, above 10 µM in the assay on OVCAR-5 ovarian and above 100 µM with SNB-19 CNS.

As for `C[C@]1(O)CC(=O)[C@]2(O)C3=C(C=C[C@]2(O)C1)C(=O)c1c(O)cccc1C3=O`, the GI50 in the assay on HOP-62 NSCLC was 15.6 µM; with NCI-H23 lung, 1.94 µM; with SK-OV-3 ovarian it was 17.5 µM; in the assay on CAKI-1 renal it was 1.5 µM; in the assay with SR leukemia, 0.635 µM; in the assay with SN12C renal, 1.72 µM. The GI50 with SK-MEL-28 melanoma is 2.11 µM; with SF-295 CNS it was 18.3 µM; in the assay on OVCAR-5 ovarian it was 6.51 µM; in the assay with SNB-19 CNS, 13.6 µM. Moreover, the TGI with HOP-62 NSCLC was found to be 42.6 µM; in the assay on NCI-H23 lung it was 4.71 µM; with SK-OV-3 ovarian, 42 µM; in the assay with CAKI-1 renal, 2.85 µM; in the assay with SR leukemia it was 4.95 µM; in the assay with SN12C renal it was 3.18 µM. Moreover, the TGI was determined as 4.25 µM in the assay on SK-MEL-28 melanoma, 34.4 µM with SF-295 CNS, 19.8 µM in the assay on OVCAR-5 ovarian and 26.5 µM in the assay with SNB-19 CNS.

For the molecule `CCCCn1c(=O)c(/C=C/C(=O)/C=C/c2ccc(O)c(OC)c2)cc2ccc(Cl)cc21`, the GI50 was 1.81 µM with HOP-62 NSCLC; 2.06 µM with NCI-H23 lung; 3.82 µM with SK-OV-3 ovarian; 2.16 µM in the assay on CAKI-1 renal; 2.04 µM in the assay with SR leukemia; 1.91 µM with SN12C renal. Moreover, the GI50 was 1.93 µM with SK-MEL-28 melanoma, 2.75 µM in the assay with SF-295 CNS, 2.57 µM in the assay with OVCAR-5 ovarian and 1.62 µM in the assay on SNB-19 CNS. Further, the TGI in the assay on HOP-62 NSCLC stood at 4.17 µM; in the assay with NCI-H23 lung it was 4.98 µM; in the assay on SK-OV-3 ovarian it was 14.2 µM; in the assay with CAKI-1 renal, 3.91 µM; in the assay on SR leukemia, 17.6 µM; in the assay with SN12C renal it was 4.17 µM. Besides, the TGI in the assay with SK-MEL-28 melanoma stood at 4.12 µM; with SF-295 CNS, 10.3 µM; in the assay on OVCAR-5 ovarian, 4.89 µM; with SNB-19 CNS, 3.3 µM.

With `c1ccc2c(c1)[Se]c1ccccc1[Se]2`, the TGI with HOP-62 NSCLC, in the assay on NCI-H23 lung, in the assay on SK-OV-3 ovarian, with CAKI-1 renal, with SR leukemia and in the assay on SN12C renal was above 100 µM in each case. Besides, the TGI with SK-MEL-28 melanoma is above 100 µM; with SF-295 CNS it was 73.8 µM; in the assay with OVCAR-5 ovarian, above 100 µM; with SNB-19 CNS, above 100 µM.

As for `S=C1SC2(CCCCCC2)NC2=C1CCCCC2`, the TGI in the assay with HOP-62 NSCLC is above 100 µM; in the assay on NCI-H23 lung, above 100 µM; with SK-OV-3 ovarian it was above 100 µM; with CAKI-1 renal, above 100 µM; with SR leukemia, 80.4 µM; with SN12C renal, above 100 µM. For the same molecule, the TGI in the assay with SK-MEL-28 melanoma is above 100 µM; in the assay with SF-295 CNS, 99 µM; in the assay on OVCAR-5 ovarian, above 100 µM; in the assay with SNB-19 CNS, 87.5 µM.

On to `CCCC(=O)C(CC)/C(CCC(=O)N(Cc1ccccc1)Cc1ccccc1)=N/NC(=O)C[N+](C)(C)C` (configuration not stated), for which the TGI in the assay on HOP-62 NSCLC, in the assay with NCI-H23 lung, in the assay on SK-OV-3 ovarian, in the assay with CAKI-1 renal, in the assay on SR leukemia and with SN12C renal was above 100 µM throughout. Also, the TGI in the assay with SK-MEL-28 melanoma, with SF-295 CNS, with OVCAR-5 ovarian and with SNB-19 CNS was above 100 µM throughout.

As for `COc1cc2c3c(n(CCCn4cccn4)c(=O)c2cc1OC)-c1cc2c(cc1C3=O)OCO2`, the GI50 was 0.449 µM in the assay on HOP-62 NSCLC; 0.807 µM in the assay with NCI-H23 lung; 4.13 µM in the assay with SK-OV-3 ovarian; 0.577 µM with CAKI-1 renal; 0.0465 µM with SR leukemia; 0.463 µM in the assay on SN12C renal. Further, the GI50 in the assay with SK-MEL-28 melanoma is 5.35 µM; in the assay with SF-295 CNS it was 0.581 µM; in the assay on OVCAR-5 ovarian, 14 µM; in the assay with SNB-19 CNS, 1.08 µM. For the same molecule, the TGI in the assay on HOP-62 NSCLC was 11.1 µM; in the assay on NCI-H23 lung, 4.38 µM; with SK-OV-3 ovarian it was above 100 µM; with SR leukemia it was 1.57 µM; in the assay with SN12C renal, 3.08 µM; in the assay on SK-MEL-28 melanoma it was above 100 µM. Also, the values for the TGI in the assay with SF-295 CNS, in the assay with OVCAR-5 ovarian and in the assay with SNB-19 CNS were 32 µM, 64.4 µM and above 100 µM, respectively.

In the case of `CN1NC(c2ccccc2)=C(C#N)C(=O)CC1c1ccccc1Cl` (configuration not stated), the TGI in the assay with HOP-62 NSCLC was 94.1 µM; in the assay on NCI-H23 lung, above 100 µM; with SK-OV-3 ovarian, above 100 µM; in the assay on CAKI-1 renal it was above 100 µM; in the assay with SR leukemia, above 100 µM; in the assay with SN12C renal, above 100 µM. The TGI in the assay on SK-MEL-28 melanoma, in the assay with SF-295 CNS, with OVCAR-5 ovarian and in the assay with SNB-19 CNS was above 100 µM each time.
